Data on four compounds can be found in the supplement of paper PMC10307832.

In the first assay the test system is HCC-15. The experiment in a line: relative viability (nuclei count vs DMSO), 5 days (fraction); higher = more cells survive. To be noted: first compound 0.2 µM. The procedure, abridged: (§1)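 Relative viability equals treated-well nuclei counts divided by vehicle-well nuclei counts. Counts came from 4× images of lung cancer cell lines grown in 1536-well plates for 5 days after pin-tool dosing on the day after seeding. Dosing used one drug alone or a fixed anchor-drug dose plus five library-drug doses (not always all listed) in √10 steps, and values are medians of duplicate plates.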
With `COCC1(CO)C(=O)C2CCN1CC2` (configuration not stated) [PRIMA-1MET] + CC(=O)c1c(C)c2cnc(Nc3ccc(N4CCNCC4)cn3)nc2n(C2CCCC2)c1=O [Palbociclib] (partner 0.5 µM), the relative viability turned out to be 0.677.
Still for that read-out and setting: as for `COCC1(CO)C(=O)C2CCN1CC2` (configuration not stated) [PRIMA-1MET] + Cc1nc(Nc2ncc(C(=O)Nc3c(C)cccc3Cl)s2)cc(N2CCN(CCO)CC2)n1 [Dasatinib] (partner 0.075 µM), the figure is 0.732; as for `COCC1(CO)C(=O)C2CCN1CC2` (configuration not stated) [PRIMA-1MET] + O=C(c1cc(Cc2n[nH]c(=O)c3ccccc23)ccc1F)N1CCN(C(=O)C2CC2)CC1 [Olaparib] (partner 8 µM), 0.789.

The assay is the same for the next values; noted with them: first compound 0.6325 µM.
In turn, `COCC1(CO)C(=O)C2CCN1CC2` (configuration not stated) [PRIMA-1MET] + N=C(N)NC(=N)NCCc1ccccc1 [Phenformin] (partner 250 µM) yielded a relative viability of 0.471.
Compound `COCC1(CO)C(=O)C2CCN1CC2` (configuration not stated) [PRIMA-1MET] + CC(=O)c1c(C)c2cnc(Nc3ccc(N4CCNCC4)cn3)nc2n(C2CCCC2)c1=O [Palbociclib] (partner 0.5 µM) gave a relative viability of 0.407.
As to `COCC1(CO)C(=O)C2CCN1CC2` (configuration not stated) [PRIMA-1MET] + Cc1nc(Nc2ncc(C(=O)Nc3c(C)cccc3Cl)s2)cc(N2CCN(CCO)CC2)n1 [Dasatinib] (partner 0.075 µM), the relative viability was determined as 0.628.
Same read-out and setting: the same measure for `COCC1(CO)C(=O)C2CCN1CC2` (configuration not stated) [PRIMA-1MET] + O=C(c1cc(Cc2n[nH]c(=O)c3ccccc23)ccc1F)N1CCN(C(=O)C2CC2)CC1 [Olaparib] (partner 8 µM): 0.772.

Still in this assay, the particulars now being: first compound 2 µM.
For `COCC1(CO)C(=O)C2CCN1CC2` (configuration not stated) [PRIMA-1MET] + N=C(N)NC(=N)NCCc1ccccc1 [Phenformin] (partner 250 µM), the relative viability is 0.439.
The same measure, in the same setting: as for `COCC1(CO)C(=O)C2CCN1CC2` (configuration not stated) [PRIMA-1MET] + CC(=O)c1c(C)c2cnc(Nc3ccc(N4CCNCC4)cn3)nc2n(C2CCCC2)c1=O [Palbociclib] (partner 0.5 µM), the figure is 0.687; as for `COCC1(CO)C(=O)C2CCN1CC2` (configuration not stated) [PRIMA-1MET] + Cc1nc(Nc2ncc(C(=O)Nc3c(C)cccc3Cl)s2)cc(N2CCN(CCO)CC2)n1 [Dasatinib] (partner 0.075 µM), 0.639.
The same measure, in the same setting: the same measure for `COCC1(CO)C(=O)C2CCN1CC2` (configuration not stated) [PRIMA-1MET] + O=C(c1cc(Cc2n[nH]c(=O)c3ccccc23)ccc1F)N1CCN(C(=O)C2CC2)CC1 [Olaparib] (partner 8 µM): 0.746.

Still in this assay, the particulars now being: first compound 6.325 µM.
`COCC1(CO)C(=O)C2CCN1CC2` (configuration not stated) [PRIMA-1MET] + N=C(N)NC(=N)NCCc1ccccc1 [Phenformin] (partner 250 µM) gave a relative viability of 0.451.
Turning to `COCC1(CO)C(=O)C2CCN1CC2` (configuration not stated) [PRIMA-1MET] + CC(=O)c1c(C)c2cnc(Nc3ccc(N4CCNCC4)cn3)nc2n(C2CCCC2)c1=O [Palbociclib] (partner 0.5 µM), the relative viability is 0.735.
In the case of `COCC1(CO)C(=O)C2CCN1CC2` (configuration not stated) [PRIMA-1MET] + Cc1nc(Nc2ncc(C(=O)Nc3c(C)cccc3Cl)s2)cc(N2CCN(CCO)CC2)n1 [Dasatinib] (partner 0.075 µM), the relative viability worked out at 0.625.
`COCC1(CO)C(=O)C2CCN1CC2` (configuration not stated) [PRIMA-1MET] + O=C(c1cc(Cc2n[nH]c(=O)c3ccccc23)ccc1F)N1CCN(C(=O)C2CC2)CC1 [Olaparib] (partner 8 µM) had a relative viability of 0.668.

Still in this assay, the particulars now being: first compound 20 µM.
For the compound `COCC1(CO)C(=O)C2CCN1CC2` (configuration not stated) [PRIMA-1MET] + N=C(N)NC(=N)NCCc1ccccc1 [Phenformin] (partner 250 µM), the relative viability came out at 0.172.
The same measure, in the same setting: as for `COCC1(CO)C(=O)C2CCN1CC2` (configuration not stated) [PRIMA-1MET] + CC(=O)c1c(C)c2cnc(Nc3ccc(N4CCNCC4)cn3)nc2n(C2CCCC2)c1=O [Palbociclib] (partner 0.5 µM), the figure is 0.652.
Same read-out and setting: as for `COCC1(CO)C(=O)C2CCN1CC2` (configuration not stated) [PRIMA-1MET] + Cc1nc(Nc2ncc(C(=O)Nc3c(C)cccc3Cl)s2)cc(N2CCN(CCO)CC2)n1 [Dasatinib] (partner 0.075 µM), the figure is 0.181; as for `COCC1(CO)C(=O)C2CCN1CC2` (configuration not stated) [PRIMA-1MET] + O=C(c1cc(Cc2n[nH]c(=O)c3ccccc23)ccc1F)N1CCN(C(=O)C2CC2)CC1 [Olaparib] (partner 8 µM), 0.628.

For another assay, the system named is HCC-827. The assay is described as above. As to conditions: first compound 0.2 µM. The method, boiled down: as §1
In turn, `COCC1(CO)C(=O)C2CCN1CC2` (configuration not stated) [PRIMA-1MET] + N=C(N)NC(=N)NCCc1ccccc1 [Phenformin] (partner 250 µM) gave a relative viability of 0.433.
Still for that read-out and setting: as for `COCC1(CO)C(=O)C2CCN1CC2` (configuration not stated) [PRIMA-1MET] + CC(=O)c1c(C)c2cnc(Nc3ccc(N4CCNCC4)cn3)nc2n(C2CCCC2)c1=O [Palbociclib] (partner 0.5 µM), the figure is 0.573; as for `COCC1(CO)C(=O)C2CCN1CC2` (configuration not stated) [PRIMA-1MET] + Cc1nc(Nc2ncc(C(=O)Nc3c(C)cccc3Cl)s2)cc(N2CCN(CCO)CC2)n1 [Dasatinib] (partner 0.075 µM), 0.417.
Same read-out and setting: the same measure for `COCC1(CO)C(=O)C2CCN1CC2` (configuration not stated) [PRIMA-1MET] + O=C(c1cc(Cc2n[nH]c(=O)c3ccccc23)ccc1F)N1CCN(C(=O)C2CC2)CC1 [Olaparib] (partner 8 µM): 0.675.

Still in this assay, the particulars now being: first compound 0.6325 µM.
Consider `COCC1(CO)C(=O)C2CCN1CC2` (configuration not stated) [PRIMA-1MET] + N=C(N)NC(=N)NCCc1ccccc1 [Phenformin] (partner 250 µM), for which the relative viability turned out to be 0.416.
On the same count and under the same terms, as for `COCC1(CO)C(=O)C2CCN1CC2` (configuration not stated) [PRIMA-1MET] + CC(=O)c1c(C)c2cnc(Nc3ccc(N4CCNCC4)cn3)nc2n(C2CCCC2)c1=O [Palbociclib] (partner 0.5 µM), the figure is 0.462; as for `COCC1(CO)C(=O)C2CCN1CC2` (configuration not stated) [PRIMA-1MET] + Cc1nc(Nc2ncc(C(=O)Nc3c(C)cccc3Cl)s2)cc(N2CCN(CCO)CC2)n1 [Dasatinib] (partner 0.075 µM), 0.337; as for `COCC1(CO)C(=O)C2CCN1CC2` (configuration not stated) [PRIMA-1MET] + O=C(c1cc(Cc2n[nH]c(=O)c3ccccc23)ccc1F)N1CCN(C(=O)C2CC2)CC1 [Olaparib] (partner 8 µM), 0.675.
